Experimental data: patent US6696437B1, “Heterocyclically substituted benzimidazoles, the production and application thereof” (Abbott GmbH & Co. KG, priority 1999, dated 2004)

What was measured:
[1] = tested on: poly(ADP-ribose) polymerase or PARP (EC 2.4.2.30); assay: Inhibition of the enzyme poly(ADP-ribose) polymerase (ELISA / HTRF assay); type: biochemical, human or bovine
Method: The inhibitory effect of the substituted benzimidazoles I and II can be determined using an enzyme assay disclosed in the literature, with a Ki being determined as gauge of the effect. The benzimidazoles I and II were measured in this way for an inhibitory effect on the enzyme poly(ADP-ribose) polymerase or PARP (EC 2.4.2.30).
Inhibition of the Enzyme poly(ADP-ribose) Polymerase or PARP (EC 2.4.2.30)
A 96-well microtiter plate (FALCON Micro-Test IIIä Flexible Assay Plate, #3912) was coated with histones (SIGMA, H-7755). Histones were for this purpose dissolved in carbonate buffer (0.05 M […]; pH 9.4) in a concentration of 50 μg/ml. The individual wells of the microtiter plate were each incubated with 150 μl of this histone solution at room temperature for at least 2 hours or at 4° C. overnight. The wells are then blocked by adding 150 μl of a 1% strength BSA solution (SIGMA, A-7888) in carbonate buffer at room temperature for 2 hours. This is followed by three washing steps with washing buffer (0.05% […] in 1×PBS; PBS (phosphate buffered saline; Gibco, Order No. 10010): 0.21 g/l KH2PO4, 9 g/l NaCl, 0.726 g/l Na2HPO4.7H2O, pH 7.4). Washing steps were all carried out in a microtiter plate washer (“Columbus” microtiter plate washer, SLT-Labinstruments, Austria).
Required for the enzyme reaction were an enzyme reaction solution and a substrate solution, in each case as a premix. The absolute amount of these solutions depended on the intended number of assay wells.
Composition of the enzyme reaction solution per well:
4 μl of PARP reaction buffer (1 M tris-HCl pH 8.0, 100 mM MgCl2, 10 mM DTT)
20 ng of PARP (human or bovine)
4 μl of activated DNA (1 mg/ml; SIGMA, D-4522)
Composition of the substrate solution per well:
5 μl of PARP reaction buffer (10×)
0.8 μl of NAD solution (10 mM, SIGMA N-1511)
Inhibitors were dissolved in 1× PARP reaction buffer. DMSO, which was occasionally used to dissolve inhibitors in higher concentrations, was no problem up to a final concentration of 2%. For the enzyme reaction, 40μl of the enzyme reaction solution were introduced into each well and incubated with 10 μl of inhibitor solution for 10 minutes. The enzyme reaction was then started by adding 50 μl of substrate solution per well. The reaction was carried out at room temperature for 30 minutes and then stopped by washing three times with washing buffer.
The primary antibodies employed were specific anti-poly(ADP-ribose) antibodies in a dilution of 1:5000. Dilution took place in antibody buffer (1% BSA in PBS; 0.05% Tween20). Incubation time for the primary antibody was one hour at room temperature. […] This was followed by immediate measurement in an ELISA plate reader (EAR340AT “Easy Reader”, SLT-Labinstruments, Austria) (450 nm versus 620 nm).
Various concentrations were used to construct a dose-effect plot to determine the Ki of an inhibitor. […] Arithmetic means are determined using Microsoft© Excel. The IC50 is determined using the Microcal© Origin Software (Vers. 5.0) (“Sigmoidal Fit”). Conversion of the IC50 values calculated in this way into Ki values took place by using “calibration inhibitors”. The “calibration inhibitors” were also measured in each analysis. […]

PARP II = PARP II (Homo sapiens, UniProt Q9UGN5); assay: Inhibition of the enzyme PARP II; type: biochemical; settings: PARP versus PARP II
[2] = Determination of the solubility in water; type: physicochemical; settings: pH 5-6 adjusted with sodium acetate solution
Method: Determination of the Solubility in Water
A compound to be measured is dissolved directly in a fixed volume of water, and the resulting solution is adjusted to pH 5-6 with a sodium acetate solution so that the active ingredient concentration to be tested is reached. If the measured substance is not in the form of a water-soluble salt, it was dissolved in the minimum amount of dimethyl sulfoxide and then diluted with water (final dimethyl sulfoxide concentration≦1%), after which the pH was again adjusted.

[3] = S. Cuzzocrea et al., Br. J. Pharmacol. 1997; cited from earlier work

Sequence of PARP II (Q9UGN5 whole entry): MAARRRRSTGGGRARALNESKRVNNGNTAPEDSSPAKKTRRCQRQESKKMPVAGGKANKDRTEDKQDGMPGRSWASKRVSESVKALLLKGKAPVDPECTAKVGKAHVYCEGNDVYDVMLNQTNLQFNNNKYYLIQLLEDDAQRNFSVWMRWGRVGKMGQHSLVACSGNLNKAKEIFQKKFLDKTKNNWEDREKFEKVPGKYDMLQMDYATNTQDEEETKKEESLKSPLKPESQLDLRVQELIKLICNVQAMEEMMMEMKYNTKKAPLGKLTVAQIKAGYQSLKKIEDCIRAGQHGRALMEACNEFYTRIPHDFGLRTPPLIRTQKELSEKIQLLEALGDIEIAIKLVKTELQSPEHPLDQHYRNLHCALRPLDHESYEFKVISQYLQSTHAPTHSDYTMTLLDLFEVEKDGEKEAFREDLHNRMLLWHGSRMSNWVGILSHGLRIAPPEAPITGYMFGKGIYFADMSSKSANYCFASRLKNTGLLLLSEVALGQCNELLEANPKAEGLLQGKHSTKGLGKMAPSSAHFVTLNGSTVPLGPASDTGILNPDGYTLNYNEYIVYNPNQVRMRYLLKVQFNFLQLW

| Structure (SMILES) | ranking as PARP inhibitor [1] | other results |
| --- | --- | --- |
| CCCCN1CCN(c2ccc(-c3nc4cccc(C(N)=O)c4[nH]3)cn2)CC1.Cl [Example 37, 2-(2-(4-n-Butylpiperazin-1-yl)pyridin-5-yl)benzimidazole-4-carboxamide×HCl] | best PARP inhibitors |  |
| CC(C)(C)N1CCN(c2ccc(-c3nc4cccc(C(N)=O)c4[nH]3)cn2)CC1 [Example 36, 2-(2-(4-tert-Butylpiperazin-1-yl)pyridin-5-yl)benzimidazole-4-carboxamide] | best PARP inhibitors |  |
| CCN(CC)CCN(C)c1ccc(-c2nc3c(C(N)=O)cccc3[nH]2)cn1.Cl.Cl [Example 15, 2-(6-((2-(N,N-Diethylamino)eth-1-yl)methylamino)pyridin-3-yl)benzimidazole-4-carboxamide×2 HCl] | best PARP inhibitors |  |
| CCN(CC)CCN(C)c1cc(-c2nc3c(C(N)=O)cccc3[nH]2)ccn1.CCN(CC)CCN(C)c1cc(-c2nc3c(C(N)=O)cccc3[nH]2)ccn1.O=C(O)/C=C/C(=O)O [Example 25, 2-(2-((2-(N,N-Diethylamino)eth-1-yl)methylamino)pyridin-4-yl)benzimidazole-4-carboxamide×½ Fumaric Acid] | best PARP inhibitors |  |
| NC(=O)c1cccc2nc(-c3ccccc3)[nH]c12 [NU 1070, 2-phenylbenzimidazole-4-carboxamide] |  | Ki values for PARP compared with PARP II (selectivity) (PARP II): same order of magnitude |
| CCCN1CCN(c2ccc(-c3nc4cccc(C(N)=O)c4[nH]3)cn2)CC1 [Example 16, 2-(6-(4-Propylpiperazin-1-yl)pyridin-3-yl)benzimidazole-4-carboxamide] | best PARP inhibitors |  |
| COc1ccc(-c2nc3cccc(C(N)=O)c3[nH]2)cc1 [NU 1076, reference compound] |  | solubility in water [2]: < 0.01% |
| NC(=O)c1cccc2[nH]c(-c3ccncc3)nc12 [Example 1, 2-Pyridin-4-ylbenzimidazole-4-carboxamide] |  | solubility in water [2]: > 0.5% |
| NC(=O)c1cccc(N)c1 [3-aminobenzamide] |  | effect in a model of circulatory failure [3]: protective effects |
